Experimental data from ChEMBL document CHEMBL1140107, “Design, synthesis, and evaluation of potent and selective ligands for the dopamine 3 (D3) receptor with a novel in vivo behavioral profile” (J Med Chem, 2008).

Experiments:
[1] = Aqueous solubility of the compound; conditions: aqueous medium (not further specified)
[2] = molecular target: D(2) dopamine receptor (Rattus norvegicus, UniProt P61169); assay: Displacement of [3H]Spiperone from D2 receptor in Sprague-Dawley rat caudate-putamen; format: tissue-based
[3] = molecular target: D(1A) dopamine receptor (Rattus norvegicus, UniProt P18901); assay: Displacement of [3H]SCH23390 from D1-like receptor in Sprague-Dawley rat striatum
Sequence of D(1A) dopamine receptor (P18901 whole entry): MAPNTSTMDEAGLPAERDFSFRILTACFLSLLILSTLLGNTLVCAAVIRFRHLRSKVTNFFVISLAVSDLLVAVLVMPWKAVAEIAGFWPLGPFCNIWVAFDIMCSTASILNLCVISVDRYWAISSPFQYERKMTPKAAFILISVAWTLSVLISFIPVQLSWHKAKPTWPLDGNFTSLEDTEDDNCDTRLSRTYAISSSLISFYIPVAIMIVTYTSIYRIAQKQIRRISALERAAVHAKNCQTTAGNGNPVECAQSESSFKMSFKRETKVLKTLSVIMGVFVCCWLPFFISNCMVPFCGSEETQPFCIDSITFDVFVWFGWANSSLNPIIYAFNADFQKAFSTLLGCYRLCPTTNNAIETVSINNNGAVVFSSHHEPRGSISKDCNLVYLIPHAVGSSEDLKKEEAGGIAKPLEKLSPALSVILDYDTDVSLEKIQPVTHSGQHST

Sequence of D(2) dopamine receptor (P61169 whole entry): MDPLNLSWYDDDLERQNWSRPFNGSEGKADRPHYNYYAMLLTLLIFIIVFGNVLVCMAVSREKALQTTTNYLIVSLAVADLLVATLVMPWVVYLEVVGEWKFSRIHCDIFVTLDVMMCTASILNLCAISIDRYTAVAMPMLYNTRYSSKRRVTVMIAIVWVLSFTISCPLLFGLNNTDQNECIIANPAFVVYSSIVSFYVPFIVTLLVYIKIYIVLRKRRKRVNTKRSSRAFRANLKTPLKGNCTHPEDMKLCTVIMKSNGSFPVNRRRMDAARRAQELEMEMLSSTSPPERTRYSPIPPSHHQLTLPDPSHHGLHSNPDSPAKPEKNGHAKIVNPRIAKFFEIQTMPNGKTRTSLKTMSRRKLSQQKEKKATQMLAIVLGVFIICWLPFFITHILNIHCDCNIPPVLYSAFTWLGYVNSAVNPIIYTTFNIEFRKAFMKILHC

Row | Structure (SMILES) | solubility [1] | Ki [2] | Ki [3]
1 | CCCN(CC[C@H]1CC[C@H](NC(=O)c2ccc3ccccc3c2)CC1)[C@H]1CCc2nc(N)sc2C1.Cl.Cl | 100 mg/mL |  | 
2 | CCCN(CC[C@H]1CC[C@H](NC(=O)/C=C/c2ccccc2)CC1)[C@H]1CCc2nc(N)sc2C1 |  | 0.33 µM | 
3 | COc1ccc2c(c1)CC[C@@H]1CN(CC[C@H]3CC[C@H](NC(=O)c4ccc5ccccc5c4)CC3)CCN21 |  | > 10 µM | > 50 µM
4 | CCCN[C@H]1CCc2nc(N)sc2C1 [PRAMIPEXOLE] |  |  | > 100 µM

Next, values leading:

Row | solubility [1] | Ki [2] | Ki [3] | Structure (SMILES)
5 |  |  | 5.4 µM | CCCCN(CC[C@H]1CC[C@H](NC(=O)c2ccc3ccccc3c2)CC1)[C@H]1CCc2nc(N)sc2C1
6 |  |  | 13 µM | CC(C)CCN(CC[C@H]1CC[C@H](NC(=O)c2ccc3ccccc3c2)CC1)[C@H]1CCc2nc(N)sc2C1
7 |  |  | 64 µM | Nc1nc2c(s1)C[C@@H](NCC[C@H]1CC[C@H](NC(=O)c3ccc4ccccc4c3)CC1)CC2
